The compounds below were run against T1, MAGL (Homo sapiens, UniProt Q99685) (assay: 2-AG assay: MAGL hydrolysis of 2-arachidonoylglycerol to arachidonic acid, followed by mass spectrometry). Settings: footnote [a]: measured in 2-AG assay.
T1 sequence (Q99685 1-303): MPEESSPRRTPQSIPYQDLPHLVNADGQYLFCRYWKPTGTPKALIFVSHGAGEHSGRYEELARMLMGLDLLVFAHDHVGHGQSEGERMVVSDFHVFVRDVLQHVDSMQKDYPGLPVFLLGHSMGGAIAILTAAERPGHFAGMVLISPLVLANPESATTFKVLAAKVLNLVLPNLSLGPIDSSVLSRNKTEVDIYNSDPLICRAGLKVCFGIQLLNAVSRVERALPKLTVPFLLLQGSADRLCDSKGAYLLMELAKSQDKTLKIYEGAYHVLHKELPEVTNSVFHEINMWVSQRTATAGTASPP
Assay type: biochemical
Description: Alternatively, compounds were profiled for MAGL inhibitory activity by determining the enzymatic activity by following the hydrolysis of the natural substrate 2-arachidonoylglycerol resulting in arachidonic acid, which can be followed by mass spectrometry. This assay is hereinafter abbreviated “2-AG assay”.
The 2-AG assay was carried out in 384 well assay plates (PP, Greiner Cat #784201) in a total volume of 20 μL. Compound dilutions were made in 100% DMSO (VWR Chemicals 23500.297) in a polypropylene plate in 3-fold dilution steps to give a final concentration range in the assay from 12.5 μM to […]. 0.25 μL compound dilutions (100% DMSO) were added to 9 μL MAGL in assay buffer (50 mM TRIS (GIBCO, 15567-027), 1 mM EDTA (Fluka, 03690-100 ml), 0.01% (v/v) Tween. After shaking, the plate was incubated for 15 min at RT. To start the reaction, 10 μL 2-arachidonoylglycerol in assay buffer was added. The final concentrations in the assay was […] and 8 μM 2-arachidonoylglycerol. After shaking and 30 min incubation at RT, the reaction was quenched by the addition of 40 μL of acetonitrile containing 4 μM of d8-arachidonic acid. The amount of arachidonic acid was traced by an online SPE system (Agilent Rapidfire) coupled to a triple quadrupole mass spectrometer (Agilent 6460). A C18 SPE cartridge (G9205A) was used in an acetonitrile/water liquid setup. The mass spectrometer was operated in negative electrospray mode following the mass transitions 303.1→259.1 for arachidonic acid and 311.1→267.0 for d8-arachidonic acid. The activity of the compounds was calculated based on the ratio of intensities [arachidonic acid/d8-arachidonic acid].
An IC50 of 49.3 nM was found for `CN([C@H]1COC2(CCN(C(=O)N3CC[C@@H]4OCC(=O)N[C@@H]4C3)CC2)C1)S(=O)(=O)c1ccccc1` [Example 30, N-Methyl-N-((R)-8-((4aR,8aS)-3-oxooctahydro-2H-pyrido[4,3-b][1,4]oxazine-6-carbonyl)-1-oxa-8-azaspiro[4.5]decan-3-yl)benzenesulfonamide] in this work.
An IC50 of 28.9 nM was found for `O=C1CO[C@H]2CCN(C(=O)N3CC4(CC(Oc5ccc(C(F)(F)F)cn5)C4)C3)C[C@H]2N1` [Example 25, (4aR,8aS)-6-(6-((5-(Trifluoromethyl)pyridin-2-yl)oxy)-2-azaspiro[3.3]heptane-2-carbonyl)hexahydro-2H-pyrido[4,3-b][1,4]oxazin-3(4H)-one] in this work.
An IC50 of 821 nM was found for `O=C1CO[C@H]2CCN(C(=O)N3CCC4(CC3)C[C@H](NS(=O)(=O)c3ccccc3)CO4)C[C@H]2N1` (mixture of isomers) [Example 19, rac-(4aR,8aS)-N-((S)-8-(3-oxooctahydro-2H-pyrido[4,3-b][1,4]oxazine-6-carbonyl)-1-oxa-8-azaspiro[4.5]decan-3-yl)benzenesulfonamide] in this work.
An IC50 of 228 nM was found for `O=C1CO[C@H]2CCN(C(=O)N3CC4(C3)CN(S(=O)(=O)c3ccc(F)cc3Cl)C4)C[C@H]2N1` [Example 16, (4aR,8aS)-6-(6-((2-Chloro-4-fluorophenyl)sulfonyl)-2,6-diazaspiro[3.3]heptane-2-carbonyl)hexahydro-2H-pyrido[4,3-b][1,4]oxazin-3(4H)-one] in this work.
An IC50 of 76.4 nM was found for `O=C1CO[C@H]2CCN(C(=O)N3CCC4(CC3)CN(Cc3ccc(C(F)(F)F)cc3F)C4)C[C@H]2N1` [Example 13, (4aR,8aS)-6-(2-(2-Fluoro-4-(trifluoromethyl)benzyl)-2,7-diazaspiro[3.5]nonane-7-carbonyl)hexahydro-2H-pyrido[4,3-b][1,4]oxazin-3(4H)-one] in this work.
An IC50 of 0.8 nM was found for `O=C1CO[C@H]2CCN(C(=O)N3CCC4(CC3)CC(Oc3ccc(C(F)(F)F)cc3F)C4)C[C@H]2N1` [Example 10, (4aR,8aS)-6-(2-(2-Fluoro-4-(trifluoromethyl)phenoxy)-7-azaspiro[3.5]nonane-7-carbonyl)hexahydro-2H-pyrido[4,3-b][1,4]oxazin-3(4)-one] in this work.
An IC50 of 51.3 nM was found for `O=C1CO[C@H]2CCN(C(=O)N3CCC4(CC3)CC(NS(=O)(=O)c3ccc(F)cc3Cl)CO4)C[C@H]2N1` (stereo in doubt) [Example 31, 2-Chloro-4-fluoro-N-((S)-8-((4aR,8aS)-3-oxooctahydro-2H-pyrido[4,3-b][1,4]oxazine-6-carbonyl)-1-oxa-8-azaspiro[4.5]decan-3-yl)benzenesulfonamide] in this work.
An IC50 of 182 nM was found for `O=C1CO[C@H]2CCN(C(=O)N3CCC4(CC3)CC(NCc3ccc(F)cc3Cl)CO4)C[C@H]2N1` (single isomer, unassigned) [Example 35] in this work.
An IC50 of 12.5 nM was found for `O=C1CO[C@H]2CCN(C(=O)N3CC4(CC(Oc5cc(F)cc(C(F)(F)F)c5)C4)C3)C[C@H]2N1` [Example 9, (4aR,8aS)-6-(6-(3-Fluoro-5-(trifluoromethyl)phenoxy)-2-azaspiro[3.3]heptane-2-carbonyl)hexahydro-2H-pyrido[4,3-b][1,4]oxazin-3(4H)-one] in this work.
An IC50 of 3.8 nM was found for `O=C1CO[C@H]2CCN(C(=O)N3CC4(CC(Oc5cc(C(F)(F)F)c(C(F)(F)F)cn5)C4)C3)C[C@H]2N1` [Example 22, (4aR,8aS)-6-(6-((4,5-Bis(trifluoromethyl)pyridin-2-yl)oxy)-2-azaspiro[3.3]heptane-2-carbonyl)hexahydro-2H-pyrido[4,3-b][1,4]oxazin-3(4H)-one] in this work.
An IC50 of 31 nM was found for `Cc1ccc(COC2CC3(C2)CN(C(=O)N2CC[C@@H]4OCC(=O)N[C@@H]4C2)C3)cc1C(F)(F)F` [Example 26, (4aR,8aS)-6-(6-((4-Methyl-3-(trifluoromethyl)benzyl)oxy)-2-azaspiro[3.3]heptane-2-carbonyl)hexahydro-2H-pyrido[4,3-b][1,4]oxazin-3(4H)-one] in this work.
An IC50 of 2030 nM was found for `O=C1CO[C@H]2CCN(C(=O)N3CCC4(CN(Cc5ccc(C(F)(F)F)cc5F)C4)C3)C[C@H]2N1` [Example 15, (4aR,8aS)-6-(2-(2-Fluoro-4-(trifluoromethyl)benzyl)-2,6-diazaspiro[3.4]octane-6-carbonyl)hexahydro-2H-pyrido[4,3-b][1,4]oxazin-3(4H)-one] in this work.
An IC50 of 1 nM was found for `O=C1CO[C@H]2CCN(C(=O)N3CC4(CC(COc5ccc(C(F)(F)F)cc5F)C4)C3)C[C@H]2N1` [Example 43, (4aR,8aS)-6-[6-[[2-Fluoro-4-(trifluoromethyl)phenoxy]methyl]-2-azaspiro[3.3]heptane-2-carbonyl]-4,4a,5,7,8,8a-hexahydropyrido[4,3-b][1,4]oxazin-3-one] in this work.
An IC50 of 33.1 nM was found for `O=C1CO[C@H]2CCN(C(=O)N3CCC4(CC3)CN(S(=O)(=O)c3ccc(F)cc3Cl)C4)C[C@H]2N1` [Example 27, (4aR,8aS)-6-(2-((2-Chloro-4-fluorophenyl)sulfonyl)-2,7-diazaspiro[3.5]nonane-7-carbonyl)hexahydro-2H-pyrido[4,3-b][1,4]oxazin-3(4H)-one] in this work.
An IC50 of 268 nM was found for `O=C1CO[C@H]2CCN(C(=O)N3CCC4(CCN(Cc5ccc(C(F)(F)F)cc5F)C4)C3)C[C@H]2N1` (stereo partly drawn) [Example 14, (4aR,8aS)-6-(7-(2-Fluoro-4-(trifluoromethyl)benzyl)-2,7-diazaspiro[4.4]nonane-2-carbonyl)hexahydro-2H-pyrido[4,3-b][1,4]oxazin-3(4H)-one] in this work.
An IC50 of 279 nM was found for `O=C1CO[C@H]2CCN(C(=O)N3CCC4(CC3)CC(NCc3ccc(F)cc3Cl)CO4)C[C@H]2N1` (single isomer, unassigned) [Example 36] in this work.
An IC50 of 8.5 nM was found for `O=C1CO[C@H]2CCN(C(=O)N3CC4(CC(Oc5ccc(Cl)cc5C(F)(F)F)C4)C3)C[C@H]2N1` [Example 7, (4aR,8aS)-6-(6-(4-Chloro-2-(trifluoromethyl)phenoxy)-2-azaspiro[3.3]heptane-2-carbonyl)hexahydro-2H-pyrido[4,3-b][1,4]oxazin-3(4H)-one] in this work.
An IC50 of 19.8 nM was found for `O=C1CO[C@H]2CCN(C(=O)N3CC4(CN(Cc5ccc(F)cc5Cl)C4)C3)C[C@H]2N1` [Example 11, (4aR,8aS)-6-(6-(2-Chloro-4-fluorobenzyl)-2,6-diazaspiro[3.3]heptane-2-carbonyl)hexahydro-2H-pyrido[4,3-b][1,4]oxazin-3(4H)-one] in this work.
An IC50 of 389 nM was found for `O=C1CO[C@H]2CCN(C(=O)N3CCC4(CC3)CN(S(=O)(=O)c3ccc(C(F)(F)F)cc3)C4)C[C@H]2N1` [Example 37, (4aR,8aS)-6-(2-((4-(Trifluoromethyl)phenyl)sulfonyl)-2,7-diazaspiro[3.5]nonane-7-carbonyl)hexahydro-2H-pyrido[4,3-b][1,4]oxazin-3(4H)-one] in this work.
An IC50 of 15.7 nM was found for `O=C1CO[C@H]2CCN(C(=O)N3CC4(CN(Cc5ccc(C(F)(F)F)cc5F)C4)C3)C[C@H]2N1` [Example 12, (4aR,8aS)-6-(6-(2-Fluoro-4-(trifluoromethyl)benzyl)-2,6-diazaspiro[3.3]heptane-2-carbonyl)hexahydro-2H-pyrido[4,3-b][1,4]oxazin-3(4H)-one] in this work.
An IC50 of 2.3 nM was found for `O=C1CO[C@H]2CCN(C(=O)N3CC4(CC(Oc5ccc(C(F)(F)F)cc5F)C4)C3)C[C@H]2N1` [Example 3, (4aR,8aS)-6-(6-(2-Fluoro-4-(trifluoromethyl)phenoxy)-2-azaspiro[3.3]heptane-2-carbonyl)hexahydro-2H-pyrido[4,3-b][1,4]oxazin-3(4H)-one] in this work.
An IC50 of 4.8 nM was found for `O=C1CO[C@H]2CCN(C(=O)N3CC4(CC(Oc5ccc(C(F)(F)F)c(C(F)(F)F)n5)C4)C3)C[C@H]2N1` [Example 23, (4aR,8aS)-6-(6-((5,6-Bis(trifluoromethyl)pyridin-2-yl)oxy)-2-azaspiro[3.3]heptane-2-carbonyl)hexahydro-2H-pyrido[4,3-b][1,4]oxazin-3(4H)-one] in this work.
An IC50 of 129 nM was found for `CN(Cc1ccc(F)cc1Cl)C1COC2(CCN(C(=O)N3CC[C@@H]4OCC(=O)N[C@@H]4C3)CC2)C1` (single isomer, unassigned) [Example 33] in this work.
An IC50 of 47.5 nM was found for `O=C1CO[C@H]2CCN(C(=O)N3CCC4(CC3)CC(NS(=O)(=O)c3ccc(C(F)(F)F)cc3)CO4)C[C@H]2N1` (stereo in doubt) [Example 29, N-((S)-8-((4aR,8aS)-3-Oxooctahydro-2H-pyrido[4,3-b][1,4]oxazine-6-carbonyl)-1-oxa-8-azaspiro[4.5]decan-3-yl)-4-(trifluoromethyl)benzenesulfonamide] in this work.

Source: patent US12577257B2, “Heterocyclic compounds” (Hoffmann-La Roche Inc., priority 2018, dated 2026)
